Results from patent US20230139171A1 (SITA Information Networking Computing UK Limited, priority 2019, published 2023).

Key:
Assay type in all cases: cell-based
[1] = target: T1, human TLR7 (Homo sapiens, UniProt Q9NYK1); experiment: TLR7 inhibition reporter assay (HEK-Blue cells, SEAP reporter, gardiquimod stimulation); conditions: HEK-Blue cells overexpressing human TLR7, SEAP reporter, gardiquimod 7.5 μM; read-out: TLR7 IC50
T1 construct: host or cells: HEK-Blue cells
T1 sequence (Q9NYK1 27-1049): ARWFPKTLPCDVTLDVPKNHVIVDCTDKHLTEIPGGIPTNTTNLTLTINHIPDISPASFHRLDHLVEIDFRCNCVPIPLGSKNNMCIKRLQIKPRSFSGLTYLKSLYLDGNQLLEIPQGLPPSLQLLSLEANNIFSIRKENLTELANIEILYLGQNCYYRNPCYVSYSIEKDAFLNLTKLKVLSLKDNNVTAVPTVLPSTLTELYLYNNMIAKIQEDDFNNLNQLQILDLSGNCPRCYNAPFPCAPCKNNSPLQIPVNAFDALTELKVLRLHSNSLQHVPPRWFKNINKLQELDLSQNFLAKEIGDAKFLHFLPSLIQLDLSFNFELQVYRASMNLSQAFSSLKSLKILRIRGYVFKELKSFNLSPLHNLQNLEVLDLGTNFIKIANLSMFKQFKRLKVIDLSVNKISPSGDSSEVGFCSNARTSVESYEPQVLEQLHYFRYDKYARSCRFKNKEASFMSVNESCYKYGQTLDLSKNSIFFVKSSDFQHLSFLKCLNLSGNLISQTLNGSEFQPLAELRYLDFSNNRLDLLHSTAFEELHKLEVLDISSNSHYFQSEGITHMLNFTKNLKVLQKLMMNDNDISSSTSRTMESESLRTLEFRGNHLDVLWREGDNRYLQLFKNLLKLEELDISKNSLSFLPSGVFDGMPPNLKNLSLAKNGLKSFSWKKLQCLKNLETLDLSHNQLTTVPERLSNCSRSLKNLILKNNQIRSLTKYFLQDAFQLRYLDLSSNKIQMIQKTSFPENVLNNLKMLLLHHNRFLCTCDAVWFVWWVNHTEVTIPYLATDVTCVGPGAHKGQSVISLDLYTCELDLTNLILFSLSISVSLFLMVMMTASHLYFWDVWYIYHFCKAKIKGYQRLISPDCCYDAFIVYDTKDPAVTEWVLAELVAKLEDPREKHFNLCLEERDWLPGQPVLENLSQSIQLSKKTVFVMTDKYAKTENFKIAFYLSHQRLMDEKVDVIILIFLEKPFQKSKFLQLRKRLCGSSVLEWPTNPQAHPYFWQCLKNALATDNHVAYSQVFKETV
How it was run: (§1)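 Dose–response from 0.05 nM to 50 μM was run in HEK-Blue human TLR7, TLR8 and TLR9 reporter cells. After 30 min at room temperature with compound, ligand was added (TLR7 gardiquimod 7.5 μM; TLR8 R848 15.9 μM; TLR9 ODN2006 5 nM) and SEAP measured next day, at 22 h.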

[2] = target: T2, human TLR9 (Homo sapiens, UniProt Q9NR96); experiment: TLR9 inhibition reporter assay (HEK-Blue cells, SEAP reporter, ODN2006 stimulation); conditions: HEK-Blue cells overexpressing human TLR9, SEAP reporter, ODN2006 5 nM
T2 construct: host or cells: HEK-Blue cells
T2 sequence (Q9NR96 26-1032): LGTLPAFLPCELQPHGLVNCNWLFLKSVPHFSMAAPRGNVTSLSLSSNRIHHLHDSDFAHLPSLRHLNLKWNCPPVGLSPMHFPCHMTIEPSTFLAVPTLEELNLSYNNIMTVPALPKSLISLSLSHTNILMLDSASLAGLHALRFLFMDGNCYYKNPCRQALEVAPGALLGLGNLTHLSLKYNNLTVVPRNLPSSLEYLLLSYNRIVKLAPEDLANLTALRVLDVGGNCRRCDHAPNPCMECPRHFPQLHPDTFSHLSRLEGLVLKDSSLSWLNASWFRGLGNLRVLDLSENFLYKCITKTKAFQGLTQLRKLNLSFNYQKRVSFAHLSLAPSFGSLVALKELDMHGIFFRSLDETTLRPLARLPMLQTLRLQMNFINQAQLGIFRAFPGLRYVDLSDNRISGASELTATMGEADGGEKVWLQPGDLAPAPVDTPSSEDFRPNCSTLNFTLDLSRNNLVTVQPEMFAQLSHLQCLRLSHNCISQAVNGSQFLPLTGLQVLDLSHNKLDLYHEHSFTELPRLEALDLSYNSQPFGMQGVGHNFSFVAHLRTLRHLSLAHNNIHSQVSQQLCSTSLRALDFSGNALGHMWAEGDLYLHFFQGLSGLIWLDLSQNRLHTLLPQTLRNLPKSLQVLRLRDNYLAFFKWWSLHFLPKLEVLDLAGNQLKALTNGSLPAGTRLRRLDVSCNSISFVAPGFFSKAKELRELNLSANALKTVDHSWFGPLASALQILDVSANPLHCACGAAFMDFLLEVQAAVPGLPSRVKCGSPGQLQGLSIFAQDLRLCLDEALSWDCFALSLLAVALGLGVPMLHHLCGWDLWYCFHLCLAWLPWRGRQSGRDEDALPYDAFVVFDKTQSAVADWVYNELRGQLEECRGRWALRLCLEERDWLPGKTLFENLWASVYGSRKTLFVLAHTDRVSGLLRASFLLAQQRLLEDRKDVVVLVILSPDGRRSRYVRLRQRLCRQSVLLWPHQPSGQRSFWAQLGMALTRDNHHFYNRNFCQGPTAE
Description: TLR7/8/9 Inhibition Reporter Assays
HEK-Blue™-cells (Invivogen) overexpressing human TLR7, TLR8 or TLR9 receptors were used for screening inhibitors of these receptors using an inducible SEAP (secreted embryonic alkaline phosphatase) reporter gene under the control of the IFN-β minimal promoter fused to five NF-κB and AP-1-binding sites. Briefly, cells are seeded into Greiner 384 well plates (15000 cells per well for TLR7, 20,000 for TLR8 and 25,000 for TLR9) and then treated with test compounds in DMSO to yield a final dose response concentration range of 0.05 nM-50 μM. After a 30 minute compound pre-treatment at room temperature, the cells are then stimulated with a TLR7 ligand (gardiquimod at a final concentration of 7.5 μM), TLR8 ligand (R848 at a final concentration of 15.9 μM) or TLR9 ligand (ODN2006 at a final concentration of 5 nM) to activate NF-κB and AP-1 which induce the production of SEAP. After a 22 hour incubation at 37° C., 5% CO2, SEAP levels are determined with the addition of HEK-Blue™ Detection reagent (Invivogen), a cell culture medium that allows for detection of SEAP, according to manufacturer's specifications. The percent inhibition is determined as the % reduction in the HEK-Blue signal present in wells treated with agonist plus DMSO alone compared to wells treated with a known inhibitor.

[3] = target: T3, human TLR8 (Homo sapiens, UniProt Q9NR97); experiment: TLR8 inhibition reporter assay (HEK-Blue cells, SEAP reporter, R848 stimulation); conditions: HEK-Blue cells overexpressing human TLR8, SEAP reporter, R848 15.9 μM; read-out: TLR8 IC50
T3 construct: host or cells: HEK-Blue cells
T3 sequence (Q9NR97 27-1041): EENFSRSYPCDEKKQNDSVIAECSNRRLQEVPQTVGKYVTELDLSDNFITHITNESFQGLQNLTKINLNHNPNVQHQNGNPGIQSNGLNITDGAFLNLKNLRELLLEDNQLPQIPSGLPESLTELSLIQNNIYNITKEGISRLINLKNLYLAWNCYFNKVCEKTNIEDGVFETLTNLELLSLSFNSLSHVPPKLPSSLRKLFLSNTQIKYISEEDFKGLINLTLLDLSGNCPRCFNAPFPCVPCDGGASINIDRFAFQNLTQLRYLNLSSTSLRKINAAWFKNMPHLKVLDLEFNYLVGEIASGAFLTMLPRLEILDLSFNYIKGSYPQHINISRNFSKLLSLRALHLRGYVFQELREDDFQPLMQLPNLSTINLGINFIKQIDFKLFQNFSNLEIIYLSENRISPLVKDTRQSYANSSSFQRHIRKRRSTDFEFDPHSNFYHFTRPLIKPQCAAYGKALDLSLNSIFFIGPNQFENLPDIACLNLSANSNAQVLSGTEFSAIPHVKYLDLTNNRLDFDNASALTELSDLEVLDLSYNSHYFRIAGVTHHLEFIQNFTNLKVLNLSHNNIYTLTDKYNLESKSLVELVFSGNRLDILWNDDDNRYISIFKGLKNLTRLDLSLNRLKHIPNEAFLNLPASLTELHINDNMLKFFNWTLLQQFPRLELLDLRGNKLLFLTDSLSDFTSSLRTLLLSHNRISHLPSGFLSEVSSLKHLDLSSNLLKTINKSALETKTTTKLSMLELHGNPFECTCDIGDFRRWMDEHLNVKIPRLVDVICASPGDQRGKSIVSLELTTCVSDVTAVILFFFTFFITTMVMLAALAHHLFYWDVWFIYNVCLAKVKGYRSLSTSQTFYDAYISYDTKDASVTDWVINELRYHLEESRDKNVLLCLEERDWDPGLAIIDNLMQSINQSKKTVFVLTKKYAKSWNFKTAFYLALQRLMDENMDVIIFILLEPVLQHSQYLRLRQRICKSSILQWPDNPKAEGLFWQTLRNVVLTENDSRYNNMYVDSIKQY
How it was run: as §1

| Structure (SMILES) | IC50 [1] | IC50 [2] | IC50 [3] |
| --- | --- | --- | --- |
| COc1cc(-c2[nH]c3sc(C4CCN(C5CCOCC5)CC4)nc3c2C(C)C)cn2ncnc12 [Example 12, 6-isopropyl-5-(8-methoxy-[1,2,4]triazolo[1,5-a]pyridin-6-yl)-2-(1-(tetrahydro-2H-pyran-4-yl)piperidin-4-yl)-4H-pyrrolo[3,2-d]thiazole] | 0.00159 µM | 2.15 µM | 0.00086 µM |
| Cc1cc(-c2[nH]c3sc(C4CCC(NCC5(CO)CC5)CC4)nc3c2C(C)C)cn2ncnc12 (single isomer, unassigned) [Example 142, (1-(((4-(6-isopropyl-5-(8-methyl-[1,2,4]triazolo[1,5-a]pyridin-6-yl)-4H-pyrrolo[3,2-d]thiazol-2-yl)cyclohexyl)amino)methyl)cyclopropyl)methanol] | 0.00208 µM | 6.97 µM | 0.0027 µM |
| Cc1cc2ncnn2cc1-c1[nH]c2sc(C3CCC(N4CCNC(=O)C4)CC3)nc2c1C(C)C (single isomer, unassigned) [Example 149, 4-(4-(6-isopropyl-5-(7-methyl-[1,2,4]triazolo[1,5-a]pyridin-6-yl)-4H-pyrrolo[3,2-d]thiazol-2-yl)cyclohexyl)piperazin-2-one] | 0.108 µM | > 50 µM | 0.0985 µM |
| COc1cc(-c2[nH]c3sc(C4CCC(NC5(C)CCC5)CC4)nc3c2C(C)C)cn2ncnc12 (single isomer, unassigned) [Example 109, 4-(6-isopropyl-5-(8-methoxy-[1,2,4]triazolo[1,5-a]pyridin-6-yl)-4H-pyrrolo[3,2-d]thiazol-2-yl)-N-(1-methylcyclobutyl) cyclohexan-1-amine] | 0.00681 µM | 6.09 µM | 0.0279 µM |
| Cc1cc(-c2[nH]c3sc(N4CCN(CC(C)C)C[C@H]4C)nc3c2C(C)C)cn2ncnc12 [Example 361, (R)-2-(4-isobutyl-2-methylpiperazin-1-yl)-6-isopropyl-5-(8-methyl-[1,2,4]triazolo[1,5-a]pyridin-6-yl)-4H-pyrrolo[3,2-d]thiazole] | 0.719 µM | 45.6 µM |  |
| COCCN1CCN(c2nc3c(C(C)C)c(-c4cc(C)c5ncnn5c4)[nH]c3s2)[C@H](C)C1 [Example 357, (R)-6-isopropyl-2-(4-(2-methoxyethyl)-2-methylpiperazin-1-yl)-5-(8-methyl-[1,2,4]triazolo[1,5-a]pyridin-6-yl)-4H-pyrrolo[3,2-d]thiazole] | 1.28 µM | 38.1 µM |  |

The remaining lines, values ahead:

| IC50 [1] | IC50 [2] | IC50 [3] | Structure (SMILES) |
| --- | --- | --- | --- |
| 0.00119 µM | 8.43 µM | 0.00266 µM | Cc1c(-c2[nH]c3sc(C4CCNCC4)nc3c2C(C)C)cn2ncnc2c1C [Example 41, 5-(7,8-dimethyl-[1,2,4]triazolo[1,5-a]pyridin-6-yl)-6-isopropyl-2-(piperidin-4-yl)-4H-pyrrolo[3,2-d]thiazole] |
| 0.00277 µM | 4.35 µM | 0.00079 µM | CC(C)c1c(-c2cn(C)c3ncccc23)[nH]c2sc(C3CCN(C4CCOCC4)CC3)nc12 [Example 35, 6-isopropyl-5-(1-methyl-1H-pyrrolo[2,3-b]pyridin-3-yl)-2-(1-(tetrahydro-2H-pyran-4-yl)piperidin-4-yl)-4H-pyrrolo[3,2-d]thiazole] |
| 0.0175 µM | 47 µM | 0.00351 µM | Cc1c(-c2[nH]c3sc(C(=O)N4CC(N(C)C)C4)nc3c2C(C)C)cn2ncnc2c1C [Example 383, (5-(7,8-dimethyl-[1,2,4]triazolo[1,5-a]pyridin-6-yl)-6-isopropyl-4H-pyrrolo[3,2-d]thiazol-2-yl) (3-(dimethylamino)azetidin-1-yl)methanone] |
| 0.00487 µM | 5.49 µM | 0.00029 µM | Cc1c(-c2[nH]c3sc(C4CCC(N5CCC6(CC5)COC6)CC4)nc3c2C(C)C)cn2ncnc2c1C (single isomer, unassigned) [Example 237, 7-(4-(5-(7,8-dimethyl-[1,2,4]triazolo[1,5-a]pyridin-6-yl)-6-isopropyl-4H-pyrrolo[3,2-d]thiazol-2-yl)cyclohexyl)-2-oxa-7-azaspiro[3.5]nonane] |
